This is an account of results in ChEMBL document CHEMBL4145563, “Poecillastrin H, a Chondropsin-Type Macrolide with a Conjugated Pentaene Moiety, from a Characella sp. Marine Sponge” (J Nat Prod, 2018).

For experiment [1], the system named is 3Y1 cell line. Kind of experiment: Induction of morphological changes in rat 3Y1 cells assessed as elongation of cells. The format is functional, cell-based.
The test system of experiment [2] is 3Y1 cell line. Kind of experiment: Cytotoxicity against rat 3Y1 cells after 72 hrs by MTT assay. The format is functional, cell-based. Particulars: 3Y1, 72 h.

SMILES strings stand for the structures. Active and inactive are the calls of the source. The rule behind the calls is not given here.

For the compound `CO/C1=C\C(C)=C\[C@@H](C)[C@@H](O)[C@@H](C)C/C(C)=C/C=C/[C@H](OC)[C@@H]([C@@H](C)[C@@H](O)[C@H](C)[C@@]2(O)C[C@@H](O)[C@H](C)[C@@H](C(C)C)O2)OC1=O`, the result in the experiment on 3Y1 cell line [1] was Active. Regarding `C/C1=C\CC(O)C(C)C(C(NC(=O)C(C)C(O)CCC(C)C(O)/C(C)=C/C(C)(C)C(O)C(CC(C)C)NC(=O)/C=C/C(C)(C)C(=O)C(C)C(O)C(C)C)C(C)O)OC(=O)[C@H](O)[C@H](C(=O)O)NC(=O)/C=C/C=C/C=C/C=C/C=C/CC2CC(C)CC(CC(O)C(C)C(O)/C(C)=C/C(C)C1O)O2` (stereo partly drawn), the IC50 (in general, the concentration at which inhibition is half-maximal) in the experiment on 3Y1 cell line [2] stood at 4.1 nM. For the same compound, the result in the experiment with 3Y1 cell line [1] was Active.
